# Data: patent US8999940B2 (Ipsen Pharma S.A.S., priority 2008, dated 2015)
# How the values were obtained:
# [1] = target: T1, human recombinant GIP receptor (Homo sapiens, UniProt P48546); test: In vitro hGIP receptor binding assay
# T1 construct: expressed in transfected cells; host or cells: CHO-K1 clonal cells (membrane preparation)
# T1 sequence (P48546 22-466): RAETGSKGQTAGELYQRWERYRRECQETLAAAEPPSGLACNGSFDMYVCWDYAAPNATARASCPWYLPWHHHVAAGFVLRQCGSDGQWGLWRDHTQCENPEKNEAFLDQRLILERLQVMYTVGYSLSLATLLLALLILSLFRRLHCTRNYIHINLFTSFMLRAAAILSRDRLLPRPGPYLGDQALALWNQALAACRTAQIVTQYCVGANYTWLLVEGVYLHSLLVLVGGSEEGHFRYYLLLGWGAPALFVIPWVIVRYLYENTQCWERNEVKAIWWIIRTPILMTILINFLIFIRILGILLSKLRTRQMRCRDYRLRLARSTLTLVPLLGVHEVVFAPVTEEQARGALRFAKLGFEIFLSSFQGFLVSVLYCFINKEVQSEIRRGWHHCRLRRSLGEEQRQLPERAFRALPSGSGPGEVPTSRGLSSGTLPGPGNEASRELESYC
# Protocol: A. In Vitro hGIP Receptor Binding Assay […] The incubations were terminated by rapid filtration through GF/C filters (pre-soaked in 0.5% polyethylenimine) using a Brandel filtration manifold. Each tube and filter were then washed three times with 5-ml aliquots of ice-cold buffer.
# [2] = Human plasma half-life assay; format: in vitro ADME; conditions: 37° C., LC-MS, read-out: Human Plasma T½ (converted)
# [3] = Rat plasma half-life assay; format: in vitro ADME; conditions: 37° C., LC-MS, read-out: Rat Plasma T½ (converted)
SMILES,Ki [1] [nM],half-life at 0.1 mg/ml [2] [h],half-life at 0.1 mg/ml [3] [h]
"CC[C@H](C)[C@H](NC(=O)[C@H](CCCCN)NC(=O)[C@H](CC(=O)O)NC(=O)[C@H](CCSC)NC(=O)[C@H](C)NC(=O)[C@@H](NC(=O)C1(NC(=O)[C@H](Cc2ccc(O)cc2)NC(=O)[C@H](CC(=O)O)NC(=O)[C@H](CO)NC(=O)[C@@H](NC(=O)[C@H](Cc2ccccc2)NC(=O)[C@@H](NC(=O)CNC(=O)[C@H](CCC(=O)O)NC(=O)C(C)(C)NC(=O)[C@@H](N)Cc2ccc(O)c(OC)c2)[C@@H](C)O)[C@@H](C)CC)CCCC1)[C@@H](C)CC)C(=O)N[C@@H](Cc1c[nH]cn1)C(=O)N[C@@H](CCC(N)=O)C(=O)N[C@@H](CCC(N)=O)C(=O)N[C@@H](CC(=O)O)C(=O)N[C@@H](Cc1ccccc1)C(=O)N[C@H](C(=O)N[C@@H](CC(N)=O)C(=O)N[C@@H](Cc1c[nH]c2ccccc12)C(=O)N[C@@H](CC(C)C)C(=O)N[C@@H](CC(C)C)C(=O)N[C@@H](C)C(=O)N[C@@H](CCC(N)=O)C(=O)N[C@@H](CCCCN)C(=O)NCC(=O)N[C@@H](CCCCN)C(=O)N[C@@H](CCCCN)C(=O)N[C@@H](CC(N)=O)C(=O)N[C@@H](CC(=O)O)C(=O)N[C@@H](Cc1c[nH]c2ccccc12)C(=O)N[C@@H](CCCCN)C(=O)N[C@@H](Cc1c[nH]cn1)C(=O)N[C@@H](CC(N)=O)C(=O)N[C@H](C(=O)N[C@H](C(=O)N[C@@H](CCC(N)=O)C(=O)N[C@@H](Cc1c[nH]cn1)C(=O)O)[C@@H](C)O)[C@@H](C)CC)C(C)C [Example 73, (3MeO-Tyr^1, Aib^2, A5c^11, His^43)hGIP(1-43)-OH]",3.9,28.6,11.8
"CC[C@H](C)[C@H](NC(=O)[C@H](CCCCN)NC(=O)[C@H](CC(=O)O)NC(=O)[C@H](CCSC)NC(=O)[C@H](C)NC(=O)[C@@H](NC(=O)C1(NC(=O)[C@H](Cc2ccc(O)cc2)NC(=O)[C@H](CC(=O)O)NC(=O)[C@H](CO)NC(=O)[C@@H](NC(=O)[C@H](Cc2ccccc2)NC(=O)[C@@H](NC(=O)CNC(=O)[C@H](CCC(=O)O)NC(=O)C(C)(C)NC(=O)[C@@H](N)Cc2cccc(F)c2)[C@@H](C)O)[C@@H](C)CC)CCCC1)[C@@H](C)CC)C(=O)N[C@@H](Cc1c[nH]cn1)C(=O)N[C@@H](CCC(N)=O)C(=O)N[C@@H](CCC(N)=O)C(=O)N[C@@H](CC(=O)O)C(=O)N[C@@H](Cc1ccccc1)C(=O)N[C@H](C(=O)N[C@@H](CC(N)=O)C(=O)N[C@@H](Cc1c[nH]c2ccccc12)C(=O)N[C@@H](CC(C)C)C(=O)N[C@@H](CC(C)C)C(=O)N[C@@H](C)C(=O)N[C@@H](CCC(N)=O)C(=O)N[C@@H](CCCCN)C(=O)NCC(=O)N[C@@H](CCCCN)C(=O)N[C@@H](CCCCN)C(=O)N[C@@H](CC(N)=O)C(=O)N[C@@H](CC(=O)O)C(=O)N[C@@H](Cc1c[nH]c2ccccc12)C(=O)N[C@@H](CCCCN)C(=O)N[C@@H](Cc1c[nH]cn1)C(=O)N[C@@H](CC(N)=O)C(=O)N[C@H](C(=O)NC1(C(=O)N[C@@H](CCC(N)=O)C(=O)O)CCCC1)[C@@H](C)CC)C(C)C [Example 41, (3F-Phe^1, Aib^2, A5c^11, 41)hGIP(1-42)-OH]",5.43,63.6,> 66
"CC[C@H](C)[C@H](NC(=O)[C@H](CCCCN)NC(=O)[C@H](CC(=O)O)NC(=O)[C@H](CCSC)NC(=O)[C@H](C)NC(=O)[C@@H](NC(=O)C1(NC(=O)[C@H](Cc2ccc(O)cc2)NC(=O)[C@H](CC(=O)O)NC(=O)[C@H](CO)NC(=O)[C@@H](NC(=O)[C@H](Cc2ccccc2)NC(=O)[C@@H](NC(=O)CNC(=O)[C@H](CCC(=O)O)NC(=O)C(C)(C)NC(=O)[C@@H](N)Cc2ccc(OC(C)=O)cc2)[C@@H](C)O)[C@@H](C)CC)CCCC1)[C@@H](C)CC)C(=O)N[C@@H](Cc1c[nH]cn1)C(=O)N[C@@H](CCC(N)=O)C(=O)N[C@@H](CCC(N)=O)C(=O)N[C@@H](CC(=O)O)C(=O)N[C@@H](Cc1ccccc1)C(=O)N[C@H](C(=O)N[C@@H](CC(N)=O)C(=O)N[C@@H](Cc1c[nH]c2ccccc12)C(=O)N[C@@H](CC(C)C)C(=O)N[C@@H](CC(C)C)C(=O)N[C@@H](C)C(=O)N[C@@H](CCC(N)=O)C(=O)N[C@@H](CCCCN)C(=O)NCC(=O)N[C@@H](CCCCN)C(=O)N[C@@H](CCCCN)C(=O)N[C@@H](CC(N)=O)C(=O)N[C@@H](CC(=O)O)C(=O)N[C@@H](Cc1c[nH]c2ccccc12)C(=O)N[C@@H](CCCCN)C(=O)N[C@@H](Cc1c[nH]cn1)C(=O)N[C@@H](CC(N)=O)C(=O)N[C@H](C(=O)NC1(C(=O)N[C@@H](CCC(N)=O)C(=O)O)CCCC1)[C@@H](C)CC)C(C)C [Example 29, [Tyr(Ac)^1, Aib^2, A5c^11, 41]hGIP(1-42)-OH]",0.73,29.5,18.9
"CCCC[C@H](NC(=O)[C@H](C)NC(=O)[C@@H](NC(=O)C1(NC(=O)[C@H](Cc2ccc(O)cc2)NC(=O)[C@H](CC(=O)O)NC(=O)[C@H](CO)NC(=O)[C@@H](NC(=O)[C@H](Cc2ccccc2)NC(=O)[C@@H](NC(=O)CNC(=O)[C@H](CCC(=O)O)NC(=O)C(C)(C)NC(=O)[C@@H](N)Cc2ccc(CN)cc2)[C@@H](C)O)[C@@H](C)CC)CCCC1)[C@@H](C)CC)C(=O)N[C@@H](CC(=O)O)C(=O)N[C@@H](CCCCN)C(=O)N[C@H](C(=O)N[C@@H](Cc1c[nH]cn1)C(=O)N[C@@H](CCC(N)=O)C(=O)N[C@@H](CCC(N)=O)C(=O)N[C@@H](CC(=O)O)C(=O)N[C@@H](Cc1ccccc1)C(=O)N[C@H](C(=O)N[C@@H](CC(N)=O)C(=O)N[C@@H](Cc1c[nH]c2ccccc12)C(=O)N[C@@H](CC(C)C)C(=O)N[C@@H](CC(C)C)C(=O)N[C@@H](C)C(=O)N[C@@H](CCC(N)=O)C(=O)N[C@@H](CCCCN)C(=O)NCC(=O)N[C@@H](CCCCN)C(=O)N[C@@H](CCCCN)C(=O)N[C@@H](CC(N)=O)C(=O)N[C@@H](CC(=O)O)C(=O)N[C@@H](Cc1c[nH]c2ccccc12)C(=O)N[C@@H](CCCCN)C(=O)N[C@@H](Cc1c[nH]cn1)C(=O)N[C@@H](CC(N)=O)C(=O)N[C@H](C(=O)N[C@H](C(=O)N[C@@H](CCC(N)=O)C(=O)O)[C@@H](C)O)[C@@H](C)CC)C(C)C)[C@@H](C)CC [Example 21, (4NH2CH2-Phe^1, Aib^2, A5c^11, Nle^14)hGIP(1-42)-OH]",95,> 74,6
"CC[C@H](C)[C@H](NC(=O)[C@H](CCCCN)NC(=O)[C@H](CC(=O)O)NC(=O)C1(NC(=O)[C@H](C)NC(=O)[C@@H](NC(=O)C2(NC(=O)[C@H](Cc3ccc(O)cc3)NC(=O)[C@H](CC(=O)O)NC(=O)[C@H](CO)NC(=O)[C@@H](NC(=O)[C@H](Cc3ccccc3)NC(=O)[C@@H](NC(=O)CNC(=O)[C@H](CCC(=O)O)NC(=O)C(C)(C)NC(=O)[C@@H](N)Cc3ccc(O)c(OC)c3)[C@@H](C)O)[C@@H](C)CC)CCCC2)[C@@H](C)CC)CCCC1)C(=O)N[C@@H](Cc1c[nH]cn1)C(=O)N[C@@H](CCC(N)=O)C(=O)N[C@@H](CCC(N)=O)C(=O)N[C@@H](CC(=O)O)C(=O)N[C@@H](Cc1ccccc1)C(=O)N[C@H](C(=O)N[C@@H](CC(N)=O)C(=O)N[C@@H](Cc1c[nH]c2ccccc12)C(=O)N[C@@H](CC(C)C)C(=O)N[C@@H](CC(C)C)C(=O)N[C@@H](C)C(=O)N[C@@H](CCC(N)=O)C(=O)N[C@@H](CCCCN)C(=O)NCC(=O)N[C@@H](CCCCN)C(=O)N[C@@H](CCCCN)C(=O)N[C@@H](CC(N)=O)C(=O)N[C@@H](CC(=O)O)C(=O)N[C@@H](Cc1c[nH]c2ccccc12)C(=O)N[C@@H](CCCCN)C(=O)N[C@@H](Cc1c[nH]cn1)C(=O)N[C@@H](CC(N)=O)C(=O)N[C@H](C(=O)N[C@H](C(=O)N[C@@H](CCC(N)=O)C(=O)N[C@@H](Cc1c[nH]cn1)C(=O)O)[C@@H](C)O)[C@@H](C)CC)C(C)C [Example 74, (3MeO-Tyr^1, Aib^2, A5c^11, 14, His^43)hGIP(1-43)-OH]",9.34,> 50,12.8
"CCCC[C@H](NC(=O)[C@H](C)NC(=O)[C@@H](NC(=O)C1(NC(=O)[C@H](Cc2ccc(O)cc2)NC(=O)[C@H](CC(=O)O)NC(=O)[C@H](CO)NC(=O)[C@@H](NC(=O)[C@H](Cc2ccccc2)NC(=O)[C@@H](NC(=O)CNC(=O)[C@H](CCC(=O)O)NC(=O)C(C)(C)NC(=O)[C@@H](N)Cc2c(C)cc(O)cc2C)[C@@H](C)O)[C@@H](C)CC)CCCC1)[C@@H](C)CC)C(=O)N[C@@H](CC(=O)O)C(=O)N[C@@H](CCCCN)C(=O)N[C@H](C(=O)N[C@@H](Cc1c[nH]cn1)C(=O)N[C@@H](CCC(N)=O)C(=O)N[C@@H](CCC(N)=O)C(=O)N[C@@H](CC(=O)O)C(=O)N[C@@H](Cc1ccccc1)C(=O)N[C@H](C(=O)N[C@@H](CC(N)=O)C(=O)N[C@@H](Cc1c[nH]c2ccccc12)C(=O)N[C@@H](CC(C)C)C(=O)N[C@@H](CC(C)C)C(=O)N[C@@H](C)C(=O)N[C@@H](CCC(N)=O)C(=O)N[C@@H](CCCCN)C(=O)NCC(=O)N[C@@H](CCCCN)C(=O)N[C@@H](CCCCN)C(=O)N[C@@H](CC(N)=O)C(=O)N[C@@H](CC(=O)O)C(=O)N[C@@H](Cc1c[nH]c2ccccc12)C(=O)N[C@@H](CCCCN)C(=O)N[C@@H](Cc1c[nH]cn1)C(=O)N[C@@H](CC(N)=O)C(=O)N[C@H](C(=O)N[C@H](C(=O)N[C@@H](CCC(N)=O)C(=O)N[C@@H](Cc1c[nH]cn1)C(=O)O)[C@@H](C)O)[C@@H](C)CC)C(C)C)[C@@H](C)CC [Example 55, (2,6Me-Tyr^1, Aib^2, A5c^11, Nle^14, His^43)hGIP(1-43)-OH]",39,37.7,16.1
